pIC50: −log10 of the molar value.
Biological target: T1, serine protease trypsin (Bos taurus, UniProt P00760)
T1 construct: purchased Sigma-Aldrich T1426
T1 sequence (P00760 24-246): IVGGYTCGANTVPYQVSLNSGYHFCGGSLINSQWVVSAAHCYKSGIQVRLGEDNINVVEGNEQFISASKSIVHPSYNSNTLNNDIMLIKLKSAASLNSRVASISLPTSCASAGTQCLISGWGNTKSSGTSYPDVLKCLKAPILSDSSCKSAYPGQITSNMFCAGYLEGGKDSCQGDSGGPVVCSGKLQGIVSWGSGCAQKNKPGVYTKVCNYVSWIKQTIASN
Assay: Trypsin inhibition (protease inhibition assay, BAPNA substrate)
Type: biochemical
Settings: for pIC50: Tris buffer (50 mM Tris-HCl, 100 mM NaCl, 1 mM CaCl2, pH 7.5), 37 °C, 5 min pre-incubation, absorbance 405 nm, kinetic over 10 min; for IC50 values for trypsin compared with those of aeruginosins KT608A and KT608B: comparison with literature values of KT608A and KT608B [19]
Protocol: The samples for biological assays were dissolved in ethanol at a concentration of 1 mg/mL and further diluted with Tris buffer to the desired concentrations. The samples were tested for inhibition of trypsin (Cat# T1426, Sigma-Aldrich, St. Louis, MO, USA). The assay was performed in a Tris buffer (50 mM Tris-HCl, 100 mM NaCl, and 1 mM CaCl2 at pH 7.5). Benzoyl-L-arginine-p-nitroanilide hydrochloride (BAPNA Cat# 03,310 Chem-Impex Int’l Inc., Wood Dale, IL, USA), the trypsin substrate was dissolved at 1 mg/mL in 1:9 EtOH/buffer. The enzyme was dissolved in a buffer at 1 mg/mL. To each well were added 100 µL of buffer, 10 µL of enzyme, and 10 µL of sample. The plate was placed in the spectrophotometer at 37 °C. After 5 min, 100 µL of substrate solution was added to each well, and the plate was placed in the spectrophotometer for the kinetic measurement of the absorbance intensity over 10 min at a wavelength of 405 nm.

Compound | Inhibition of trypsin (inactive at tested concentration) (at a concentration of 1.7 mM, BAPNA substrate, pH 7.5, 37 °C, 405 nm) | pIC50 (BAPNA substrate) | IC50 values for trypsin compared with those of aeruginosins KT608A and KT608B
6-Cl-Hpla-7-sulfate-2-Ile-Choi-amide [Aeruginosin KT575] | inactive |  | 
N=C(N)NCCCCNC(=O)[C@@H]1C[C@@H]2CC[C@@H](OS(=O)(=O)O)C[C@@H]2N1C(=O)[C@@H](Cc1ccccc1)NC(=O)[C@@H](O)Cc1ccc(O)cc1 [Aeruginosin KT688, L-Hpla-D-Phe-L-Choi-6-sulfate-agmatine] |  | 5.62 | comparable with those of aeruginosins KT608A and KT608B
N=C(N)NCCCCNC(=O)[C@@H]1C[C@@H]2CC[C@@H](OS(=O)(=O)O)C[C@@H]2N1C(=O)[C@H](CCc1ccc(O)cc1)NC(=O)[C@@H](O)Cc1ccc(O)cc1 [Aeruginosin KT718, L-Hpla-L-Hty-L-Choi-6-sulfate-Agm] |  | 5.84 | comparable with those of aeruginosins KT608A and KT608B

Reference: publication PMC11433283, “Sulfated Aeruginosins from Lake Kinneret: Microcystis Bloom, Isolation, Structure Elucidation, and Biological Activity” (Marine Drugs, 2024)
